Test results as given in US5391489A, “Proteolytic enzymes from hyperthermophilic bacteria and processes for their production” (Johns Hopkins University, priority 1993, dated 1995).
Where two headings read alike, the source gives them in different places. Values belong to the molecule of their own block, whether it stands above or below them.

What was measured:
[1] = test system: purified SDS-resistant proteolytic enzyme preparation; experiment: Inhibitor studies on purified SDS-resistant proteolytic enzyme preparation; type: biochemical, Pyrococcus furiosus; details: for inhibition: concentrations below 150 μM; for inhibition at point of complete saturation: reached at 400 μM
Experimental: FIG. 7. Effect of chelating inhibitors EDTA and EGTA on activity at 98° C. of purified SDS-resistant proteolytic enzyme preparation from Pyrococcus furiosus. Samples of purified enzyme preparation were assayed in the standard azocasein with the inhibitor concentrations indicated.
Determination of proteolytic activity was based on the cleavage of azocasein (Cowan, D. A., et al., 1987, Biochem, J. 247:121-133). Assay mixtures contained 900 μl of 0.1% azocasein in 0.05M sodium phosphate buffer (pH 7.3 at 100° C.), and 100 μl of sample. The reaction was terminated by the addition of 500 μl of 15% (w/v) trichloracetic acid, and the cooled on ice for 5 min. The precipitate formed was removed by centrifugation at 12,000×g for 3 min in a microcentrifuge. Color release as a result of proteolytic activity was detected by measuring the absorbance of the supernatant at 440 nm. […] A unit of activity is defined as the amount of protein which produces a change of 0.100 absorbance units at 440 nm for a 30 min. incubation at a given temperature. Total protein was measured using the BioRad assay kit.
(§1) Purified samples of the SDS-resistant protease were obtained by incubation of the cell-free extract for 24 hours in the presence of 1% SDS at 98° C. Extracts treated in this way were then dialyzed against 5 mM sodium phosphate buffer, pH 7.5 at 4° C. overnight and concentrated in a Pharmacia Omegacell Stirred Cell (nominal molecular weight limit of 10 kDa) to a concentration of 2-3 mg/ml protein measured by the Bio-Rad protein assay kit.

[2] = test system: purified SDS-resistant proteolytic enzyme preparation; experiment: Effect of denaturing agents on activity of the purified protease (standard azocasein assay); type: biochemical, Pyrococcus furiosus; details: for percentage of original activity: standard assay conditions; for loss of proteolytic activity: 1 molar, at 98° C. for at least 30 minutes
Experimental: Several denaturing agents were added to azocasein, both in the presence and absence of the protease, to control of possible degradation of the substrate in the presence of the agents. […] Thus, high concentrations of urea and guanidinium chloride led to significant abiotic hydrolysis of azocasein such that results were difficult to interpret. The increases in relative activity above 100% are likely the result of the denaturing agents acting to make the azocasein substrate more susceptible to enzymatic hydrolysis.
(§2) Determination of proteolytic activity was based on the cleavage of azocasein (Cowan, D. A., et al., 1987, Biochem, J. 247:121-133). Assay mixtures contained 900 μl of 0.1% azocasein in 0.05M sodium phosphate buffer (pH 7.3 at 100° C.), and 100 μl of sample. The reaction was terminated by the addition of 500 μl of 15% (w/v) trichloracetic acid, and the cooled on ice for 5 min. The precipitate formed was removed by centrifugation at 12,000×g for 3 min in a microcentrifuge. Color release as a result of proteolytic activity was detected by measuring the absorbance of the supernatant at 440 nm. Linear response of the assay was obtained between 0.010 and 0.100 absorbance units. A unit of activity is defined as the amount of protein which produces a change of 0.100 absorbance units at 440 nm for a 30 min. incubation at a given temperature. Total protein was measured using the BioRad assay kit.
as §1

[3] = test system: purified SDS-resistant proteolytic enzyme preparation; experiment: Effects of solvents on purified SDS-resistant proteolytic enzyme preparation; type: biochemical, Pyrococcus furiosus
Experimental: as §2, §1

angiotensin I = experiment: Hydrolysis of peptide angiotensin I (reverse phase separation of products); type: biochemical; details: after two hours at 40° C.
Experimental: FIG. 8. Comparison of hydrolysis products of angiotensin I polypeptide by trypsin and purified SDS-resistant proteolytic enzyme preparation ("Pyrolysin") showing similarity of cleavage except for one additional cleavage by the novel enzyme preparation.
A chromatogram of the cleavage products of angiotensin I after exposure to the purified P. furiosus protease and to trypsin is shown in FIG. 8.
Hydrolysis of peptides was conducted with a modification of a procedure described by Cowan et al., 1987, Biochem. J. 247:121-133). The peptides serum thymic factor and angiotensin I were incubated with the protease from P. furiosus for fifteen and sixty minutes at 98° C., and two hours with trypsin at 40° C. End products were separated by reverse phase chromatography on a Waters high-performance liquid chromatography system using a WISP auto injector and μ-Bondapak C18 with a linear gradient of acetonitrile and water, with 0.1% trifluoroacetic acid in both phases. Peaks from the reverse phase column were dried down in a Savant Speed-Vac and analyzed by Waters Pico-Tag amino acid analysis.

[4] = Hydrolysis of synthetic substrate benzoyl-L-arginine ethyl ester; type: biochemical; details: at 60° C.
Experimental: (§3) For tests on the substrate specificity of the purified SDS-resistant preparation, benzoyl-L-arginine ethyl ester, benzoyl-DL-arginine p-nitroanilide, serum thymic factor, angiotensin I, and trypsin were obtained from Sigma. Assays of benzoyl-L-arginine ethyl ester and benzoyl-arginine p-nitroanilide were performed as described previously (Schwert, G. W. et al., 1955, Biochem. Biophys. Acta 16:570-575; Erlanger, B. F., et al., 1961, Arch. Biochem. Biophys. 95:271-278) with a change in buffers to 50 mM sodium phosphate buffer, pH 7.5, and a substrate preincubation of two minutes at standard assay temperature.

[5] = Hydrolysis of synthetic substrate benzoyl DL-arginine p-nitroanilide; type: biochemical; details: at 60° C.
Experimental: as §3

Molecule: O=S(=O)(F)Cc1ccccc1 [phenyl methylsulfonyl fluoride]
% inhibition ([1]; 10 mM inhibitor): 0%

Molecule: O=C(O)CI [iodoacetic acid]
% inhibition [1]: 0%

Molecule: O=C(O)c1cc[c]([Hg][Cl])cc1 [p-chloromercuribenzoate]
% inhibition ([1]; 10 mM inhibitor): 40%

Molecule: CN(C)C=O [Dimethylformamide]
% Activity ([3]; 10% (v/v) solvent): 80%
% Activity ([3]; 50% (v/v) solvent): 13%
% Activity ([3]; 100% solvent): 25%

Molecule: CC#N [Acetonitrile]
% Activity ([3]; 20% (v/v) solvent): 77%
% Activity ([3]; 50% (v/v) solvent): 71%
% Activity ([3]; 70% (v/v) solvent): 39%

B1: trypsin (protein, UniProt P00760 24-246, looked up)
Serine protease 1: IVGGYTCGANTVPYQVSLNSGYHFCGGSLINSQWVVSAAHCYKSGIQVRLGEDNINVVEGNEQFISASKSIVHPSYNSNTLNNDIMLIKLKSAASLNSRVASISLPTSCASAGTQCLISGWGNTKSSGTSYPDVLKCLKAPILSDSSCKSAYPGQITSNMFCAGYLEGGKDSCQGDSGGPVVCSGKLQGIVSWGSGCAQKNKPGVYTKVCNYVSWIKQTIASN
notes: comparison protease obtained from Sigma
remaining uncleaved peptide (angiotensin I): still a portion of uncleaved angiotensin I
hydrolysis of substrate [4]: effective
hydrolysis of substrate [5]: effective

The remaining lines, values ahead:

% inhibition ([1]; 100 μM inhibitor): 7.8%
% inhibition ([1]; 500 μM inhibitor): 51%
% inhibition ([1]; 10 mM inhibitor): 49%
inhibition [1]: no inhibition
inhibition at point of complete saturation [1]: about 50%
Molecule: O=C(O)CN(CCN(CC(=O)O)CC(=O)O)CC(=O)O [EDTA]

percentage of original activity ([2]; 150 mM): 57%
Molecule: OCCS [β-mecaptoethanol]

percentage of original activity ([2]; 1M denaturant): 256%
loss of proteolytic activity [2]: no loss of proteolytic activity
percentage of original activity ([2]; 2M denaturant): 299%
Molecule: N=C(N)N [guanidinium chloride]

percentage of original activity ([2]; 10 mM): 39.5%
Molecule: O[C@H](CS)[C@H](O)CS (racemic) [dithiothreitol]

loss of proteolytic activity [2]: no loss of proteolytic activity
percentage of original activity ([2]; 2M denaturant): 124%
percentage of original activity ([2]; 4M denaturant): 138%
Molecule: NC(N)=O [urea]

% inhibition ([1]; 100 μM inhibitor): 7.8%
% inhibition ([1]; 500 μM inhibitor): 51%
% inhibition ([1]; 10 mM inhibitor): 49%
inhibition [1]: no inhibition
inhibition at point of complete saturation [1]: about 50%
Molecule: O=C(O)CN(CCOCCOCCN(CC(=O)O)CC(=O)O)CC(=O)O [EGTA, [Ethylenebis(oxyethylenenitrilo)]tetraacetic acid]
